Experimental findings from patent US10774053B2, “HIV protease inhibitors” (Gilead Sciences, Inc., priority 2017, dated 2020) are described below.

This assay deals with HIV-1 (IIIB) in MT-4 cells. As to the kind of experiment: microbe, parasite or virus in culture. The format is cell-based. To be noted: Human immunodeficiency virus 1, IIIB, MT4, MT-4 cells, HIV-1; read-out: MT4 EC50.

Molecules are shown by their SMILES.

Broadly, the EC50 is the concentration giving half of the maximal effect. For `CC(C)(C)C[C@]1(c2ccc(-c3cnn(C(F)F)c3)cc2)NC(=N)N([C@H](COC(=O)N[C@H]2C[C@H]2F)c2ccc(Cl)c(-n3ncnc3C(F)F)c2)C1=O` [Compound 288], the concentration giving a half-maximal response (EC50) amounted to 6.07 nM.
Regarding `CC(C)(C)C[C@]1(c2ccc(-c3cnn(S(C)(=O)=O)c3)cc2)NC(=N)N([C@H](COC(=O)NC2(C(F)(F)F)CC2)c2ccc(Cl)c(-n3ncnc3C(F)F)c2)C1=O` [Compound 292], the EC50 was found to be 14.2 nM.
Take `CC(C)(C)C[C@]1(c2ccc(-c3cnn(S(C)(=O)=O)c3)c(F)c2)NC(=N)N([C@H](COC(=O)NC2CC2(F)F)c2ccc(Cl)c(-n3ncnc3C(F)F)c2)C1=O` (stereo partly drawn) [Compound 293]: the concentration for a half-maximal effect (EC50) was determined as 10.5 nM.
On to `CC(C)(C)C[C@]1(c2ccc(-c3cnn(C4CC4)c3)cc2)NC(=N)N([C@H](COC(=O)N[C@H]2CC2(F)F)c2ccc(Cl)c(-n3ncnc3C(F)F)c2)C1=O` [Compound 294], for which the concentration giving a half-maximal response (EC50) came out at 8.74 nM.
Consider `Cn1ccc(-c2ccc([C@@]3(CC(C)(C)C)NC(=N)N([C@H](COC(=O)N[C@H]4CC4(F)F)c4ccc(Cl)c(-n5ncnc5C(F)F)c4)C3=O)cc2)n1` [Compound 296], for which the EC50 is 8.57 nM.
Consider `Cn1ccc(-c2ccc([C@@]3(CC(C)(C)C)NC(=N)N([C@H](COC(=O)NCC(F)(F)F)c4ccc(Cl)c(-n5ncnc5C(F)F)c4)C3=O)cc2)n1` [Compound 297], for which the 50% effective concentration (EC50) came out at 10.3 nM.
In the case of `CC(C)(C)C[C@]1(c2ccc(-c3cnn(C4CC4)c3)c(F)c2)NC(=N)N([C@H](COC(=O)NC2CC2(F)F)c2ccc(Cl)c(-n3ncnc3C(F)F)c2)C1=O` (stereo partly drawn) [Compound 298], the EC50 turned out to be 7.83 nM.
Turning to `CC(C)(C)C[C@]1(c2ccc(-c3cnn(C(F)F)c3)c(F)c2)NC(=N)N([C@H](COC(=O)NCC(C)(F)F)c2ccc(Cl)c(-n3ncnc3C(F)F)c2)C1=O` [Compound 299], the EC50 is 13 nM.
For the molecule `CC(C)(C)C[C@]1(c2ccc(-c3cnn(S(C)(=O)=O)c3)c(F)c2)NC(=N)N([C@H](COC(=O)NCC(F)(F)F)c2ccc(Cl)c(-n3ncnc3C(F)F)c2)C1=O` [Compound 300], the EC50 is 12.5 nM.
On to `CC(C)(C)C[C@]1(c2ccc(-c3cnn(S(=O)(=O)C4CC4)c3)c(F)c2)NC(=N)N([C@H](COC(=O)NCC(F)(F)F)c2ccc(Cl)c(-n3ncnc3C(F)F)c2)C1=O` [Compound 302], for which the EC50 came out at 18.1 nM.
For the molecule `CC(C)(C)C[C@]1(c2ccc(-c3cnn(C4CC4)c3)c(F)c2)NC(=N)N([C@H](COC(=O)NC2(C(F)(F)F)CC2)c2ccc(Cl)c(-n3ncnc3C(F)F)c2)C1=O` [Compound 306], the EC50 was found to be 10.9 nM.
Regarding `CC(C)(C)C[C@]1(c2ccc(-c3cnn(C4CC4)c3)c(F)c2)NC(=N)N([C@H](COC(=O)NCC(F)(F)F)c2ccc(Cl)c(-n3ncnc3C(F)F)c2)C1=O` [Compound 307], the EC50 turned out to be 12.7 nM.
As to `CC(C)(C)C[C@]1(c2ccc(-n3nccn3)c(F)c2)NC(=N)N([C@H](COC(=O)NC2(C(F)(F)F)CC2)c2ccc(Cl)c(-n3ncnc3C(F)F)c2)C1=O` [Compound 309], the EC50 came out at 13.4 nM.
To `C[C@@H](NC(=O)OC[C@H](c1ccc(Cl)c(-n2ncnc2C(F)F)c1)N1C(=N)N[C@](CC(C)(C)C)(c2ccc(-c3cnn(C(F)F)c3)cc2)C1=O)C(F)(F)F` [Compound 310] belongs 20.3 nM; to `CC(C)(C)C[C@]1(c2ccc(-c3ccc(S(C)(=O)=O)cc3)c(F)c2)NC(=N)N([C@H](COC(=O)NC2(C(F)(F)F)CC2)c2ccc(Cl)c(-n3ncnc3C(F)F)c2)C1=O` [Compound 313], 19.5 nM; to `C[C@H](NC(=O)OC[C@H](c1ccc(Cl)c(-n2ncnc2C(F)F)c1)N1C(=N)N[C@](CC(C)(C)C)(c2ccc(-c3cnn(C4CC4)c3)c(F)c2)C1=O)C(F)(F)F` [Compound 314], 8.19 nM.
As for `C[C@H](NC(=O)OC[C@H](c1ccc(Cl)c(-n2ncnc2C(F)F)c1)N1C(=N)N[C@](CC(C)(C)C)(c2ccc(-c3cnn(C4CC4)c3)cc2F)C1=O)C(F)(F)F` [Compound 315], the EC50 stood at 9.97 nM.
For `CC(C)(C)C[C@]1(c2ccc(-c3cnn(C4CC4)c3)c(Cl)c2)NC(=N)N([C@H](COC(=O)NC2(C(F)(F)F)CC2)c2ccc(Cl)c(-n3ncnc3C(F)F)c2)C1=O` [Compound 316], the EC50 turned out to be 13.3 nM.
